# According to US20160375155A1, “Collagen Imaging Compositions” (Collagen Medical, LLC, priority 2015, published 2016):
# How the values were obtained:
# [1] = test system: myocardial collagen; settings: rat MI model, healthy and infarcted heart
# Procedure: Myocardial infarction was induced in Sprague Dawley rats by occlusion of the left anterior descending coronary artery followed by reperfusion. The rats were anesthetized with an intraperitoneal (i.p.) injection of 100 μg pentobarbital sodium per gram body weight and a thorocotamy was performed. The pericardium was removed and the left anterior artery was sutured with a 7.0 silk suture for 60 minutes after which reperfusion was established.
# Animals were sacrificed at 60 minutes post-injection and the heart removed and sectioned for analysis.
# The slope for this correlation is a measure of efficacy.
# [2] = test system: fibrotic liver tissue; assay: Uptake into fibrotic liver tissue, bile duct ligated (BDL) rats; assay type: in vivo, Sprague-Dawley rats; settings: BDL rats vs sham, ~7.5 μmol/kg, 90 min
# Procedure: Bile duct ligated (BDL) rats are selected to assess the uptake of the complexes in fibrotic liver tissue as compared to sham operated animals. In this model, the common bile duct is surgically tied off and the resultant cholestosis results in fibrosis around the bile ducts. Laparotomy is performed in Sprague-Dawley rats with double ligation of the common bile duct with a section between the two ligatures (2-3% isoflurane anesthesia). […] Fibrosis is evident 15 days after ligation and increases with time up to 30 days after ligation, providing defined endpoints for imaging of moderate and severe fibrosis. Studies are conducted by injecting Compound ID. No. 1 at a dose ˜7.5 μmol/kg. After 90 min, the animals are sacrificed and the 4 liver lobes and abdominal muscle are removed and the gadolinium concentration quantified by ICP-MS and collagen content quantified using hydroxyproline concentration.
# [3] = Relaxivity in PBS (Bruker mq60, 60 MHz); assay type: physicochemical; settings: pH 7.4 PBS at 1.4 T, 37° C.
# Procedure: The relaxivity of Compound ID Nos. 1, 2 and 4 were determined in PBS at 37° C. using a Bruker mq60 spectrometer operating at 60 MHz (1.4 tesla). Samples were equilibrated at concentrations ranging from 0-200 μM for at least 30 minutes at 37° C. T1 was measured using an inversion recovery sequence. Relaxivities were calculated by subtracting the relaxation rate of the buffer […] and then dividing the result by the concentration of Compound.
# [4] = Pharmacokinetics (rat), plasma gadolinium by ICP-MS; assay type: in vivo, Sprague Dawley rats; settings: 1.3 umol/kg iv bolus in 80 mM sucrose, pH 7, 2-90 minutes
# Procedure: Compound ID No. 1 was formulated at pH 7 in 80 mM sucrose and administered to Sprague Dawley rats (n=2) at dose of 1.3 umol/kg using a bolus IV injection. Plasma was sampled at 2, 5, 15, 30, and 90 minutes post-injection and analyzed for gadolinium content using ICP-MS (FIG. 15).
# [5] = molecular target: Native canine Collagen Type I and III protein; assay: Collagen binding assay, dried dog collagen plate; settings: 37° C., pH 7.4; collagen 5 μM; fit to 1 binding site
# Procedure: Canine collagen (Native canine Collagen Type I and III protein, YO protein AB, cat#739) is dissolved in 0.5 M acetic acid at 3.3 mg/ml by vortexing and shaking overnight at 4° C. The solution is then dialyzed against 10 mM Phosphate (NaH2PO4), pH 4.2 at 4° C. with three changes of the dialysis buffer.
# Ice-cold 1×PBS pH 10.8 is added to the collagen solution for a final collagen concentration of 10 μM, pH 7.4. Collagen solutions are gelled and dried down in the wells of a 96 well microtiter plate (Corning Polystyrene Flat Bottom, cat#3641). 70 μl of 10 μM collagen is aliquoted into each well in every other lane in the plate (48 wells) and the plate is incubated at 37° C. for 18 hours to form a gel and evaporate to dryness. Ungelled collagen is removed by washing the collagen films with 200 μl 1×PBS pH 7.4 (four times, 15 min per wash). The thin collagen fibril film remains, coating the bottom of each well. After washing by PBS the plate is again dried at 37° C. for 2 hours and is stored at −20° C. The final well content of gelled collagen is measured by determination of hydroxyproline and is around 180 μg/ml.
# a serial dilution of 0.2 μM-30 μM of the peptide chelate is prepared in PBS, pH 7.4 (˜300 μL of solution for each concentration). 90 μl of each concentration is also reserved in a HPLC glass vial as a sample to measure the total concentration. 140 μL of each dilution of peptide chelate is added to wells containing and non-containing collagen (control for nonspecific plastic binging). The plate is then incubated on a shaker table (300 rpm) for 2 hours at room temperature to allow the compound to bind. […] The concentration of free, unbound compound in the sample supernatants and the concentration of compound in the reserved (total) sample are determined by ICP-MS (Agilent 7500, gadolinium concentration). The concentration of compound bound to collagen is determined as [bound]=[total]−[unbound].
# The binding of compounds to human, rat and dog collagen (5 μM) was measured over the concentration range 0.2-5 μM of Comp ID Nos.: 1-4. […]
smiles,measurement,setting,value
CC(C)C[C@H](NC(=O)[C@@H]1CSSC[C@H](NC(=O)[C@H](Cc2c[nH]cn2)NC(=O)[C@H](Cc2c[nH]c3ccccc23)NC(=O)[C@H](CCCCNC(=O)CC[C@H](C(=O)O)N2CCN(CC(=O)O)CCN(CC(=O)O)CCN(CC(=O)O)CC2)NC(=O)CNC(=O)CC[C@H](C(=O)O)N2CCN(CC(=O)O)CCN(CC(=O)O)CCN(CC(=O)O)CC2)C(=O)N[C@@H]([C@@H](C)O)C(=O)N[C@@H]([C@@H](C)O)C(=O)N[C@@H](CCCCNC(=O)CC[C@H](C(=O)O)N2CCN(CC(=O)O)CCN(CC(=O)O)CCN(CC(=O)O)CC2)C(=O)N[C@@H](Cc2ccccc2)C(=O)N2CCC[C@H]2C(=O)N[C@@H](Cc2c[nH]cn2)C(=O)N[C@@H](Cc2c[nH]cn2)C(=O)N[C@@H](Cc2ccc(O)cc2)C(=O)N1)C(=O)N[C@@H](Cc1ccc(O)cc1)C(=O)N[C@@H](Cc1ccc(-c2ccccc2)cc1)C(N)=O [Compound ID No. 1],"calculated slope, hydroxyproline vs. gadolinium concentration",[1],8498
same,uptake into fibrotic liver tissue,[2],consistent with uptake of Compound ID No. 1 into fibrotic-rich liver tissue
same,R1 (relaxivity),[3],43.4 mM⁻¹ s⁻¹
same,pharmacokinetic profile (plasma gadolinium),[4],rapid initial blood clearance
same,Kd,[5],4.4 µM
